Test results reported in ChEMBL document CHEMBL1287775, “Stereoselective synthesis of hexahydro-3-methyl-1-arylchromeno[3,4-b]pyrrole and its annulated heterocycles as potent antimicrobial agents for human pathogens” (2010).
Converted amounts (≈) assume the structure as drawn.

Tests used:
[1] = test system: Staphylococcus aureus; test: Antimicrobial activity against Staphylococcus aureus by well diffusion method; assay type: functional
[2] = test system: Trichoderma; test: Antimicrobial activity against Trichoderma sp. by poison food technique; assay type: functional
[3] = test system: Bacillus subtilis; test: Antimicrobial activity against Bacillus subtilis by well diffusion method; assay type: functional
[4] = test system: Aspergillus sp.; test: Antimicrobial activity against Aspergillus sp. by poison food technique; assay type: functional
[5] = test system: Candida albicans; test: Antimicrobial activity against Candida albicans by poison food technique; assay type: functional
[6] = test system: Escherichia coli; test: Antimicrobial activity against Escherichia coli by well diffusion method; assay type: functional
[7] = test system: Streptococcus pneumoniae; test: Antimicrobial activity against Streptococcus pneumoniae by well diffusion method; assay type: functional
[8] = test system: Shigella sp.; test: Antimicrobial activity against Shigella sp. by well diffusion method; assay type: functional
[9] = test system: Salmonella typhi; test: Antimicrobial activity against Salmonella typhi by well diffusion method; assay type: functional, Salmonella enterica subsp. enterica serovar Typhi; conditions: Salmonella enterica

| SMILES | MIC [1] [µg/mL] | MIC [2] [µg/mL] | MIC [3] [µg/mL] | MIC [4] [µg/mL] | MIC [5] [µg/mL] | MIC [6] [µg/mL] | MIC [7] [µg/mL] | MIC [8] [µg/mL] | MIC [9] [µg/mL] |
| --- | --- | --- | --- | --- | --- | --- | --- | --- | --- |
| O=C(c1ccc(Cl)cc1)[C@@H]1[C@H]2c3ccccc3OC[C@H]2N2CCC[C@H]12 | 5 (≈ 14.1 µM) | 30 (≈ 84.8 µM) | 5 (≈ 14.1 µM) | 25 (≈ 70.7 µM) | 25 (≈ 70.7 µM) | 10 (≈ 28.3 µM) | 10 (≈ 28.3 µM) | 5 (≈ 14.1 µM) | 15 (≈ 42.4 µM) |
| O=C1c2ccccc2CC[C@]12[C@H]1c3ccccc3OC[C@H]1N1Cc3ccccc3C[C@@H]12 | 5 (≈ 12.3 µM) | 50 (≈ 123 µM) | 5 (≈ 12.3 µM) | 25 (≈ 61.3 µM) | 35 (≈ 85.9 µM) | 5 (≈ 12.3 µM) | 10 (≈ 24.5 µM) | 5 (≈ 12.3 µM) | 5 (≈ 12.3 µM) |
| O=C(c1ccc(Cl)cc1)[C@@H]1[C@H]2c3ccccc3OC[C@H]2N2Cc3ccccc3C[C@H]12 | 5 (≈ 12 µM) | 45 (≈ 108 µM) | 5 (≈ 12 µM) | 25 (≈ 60.1 µM) | 20 (≈ 48.1 µM) | 10 (≈ 24 µM) | 15 (≈ 36.1 µM) | 20 (≈ 48.1 µM) | 15 (≈ 36.1 µM) |
| O=C1c2ccccc2CC[C@]12[C@H]1c3ccccc3OC[C@H]1N1CCC[C@@H]12 | 65 (≈ 188 µM) | 110 (≈ 318 µM) | 70 (≈ 203 µM) | 75 (≈ 217 µM) | 95 (≈ 275 µM) | 50 (≈ 145 µM) | 55 (≈ 159 µM) | 75 (≈ 217 µM) | 60 (≈ 174 µM) |
| CN1C[C@H](C(=O)c2ccc(Cl)cc2)[C@H]2c3ccccc3OC[C@H]21 | 20 (≈ 61 µM) | 40 (≈ 122 µM) | 15 (≈ 45.8 µM) | 35 (≈ 107 µM) | 45 (≈ 137 µM) | 10 (≈ 30.5 µM) | 25 (≈ 76.3 µM) | 25 (≈ 76.3 µM) | 10 (≈ 30.5 µM) |
| O=C1c2ccccc2CC[C@]12[C@H]1c3ccccc3OC[C@H]1N1CSC[C@@H]12 | 45 (≈ 124 µM) | 105 (≈ 289 µM) | 55 (≈ 151 µM) | 75 (≈ 206 µM) | 90 (≈ 248 µM) | 65 (≈ 179 µM) | 40 (≈ 110 µM) | 70 (≈ 193 µM) | 60 (≈ 165 µM) |
| CN(C)[C@@H]1C(O)=C(C(N)=O)C(=O)[C@@]2(O)C(O)=C3C(=O)c4c(O)cccc4[C@@](C)(O)[C@H]3C[C@@H]12 [TETRACYCLINE] | 15 (≈ 33.8 µM) | – | 10 (≈ 22.5 µM) | – | – | 10 (≈ 22.5 µM) | 20 (≈ 45 µM) | 15 (≈ 33.8 µM) | 25 (≈ 56.3 µM) |
| O=C(c1ccc(Cl)cc1)[C@@H]1[C@H]2c3ccccc3OC[C@H]2N2CSC[C@H]12 | 25 (≈ 67.2 µM) | 75 (≈ 202 µM) | 20 (≈ 53.8 µM) | 70 (≈ 188 µM) | 65 (≈ 175 µM) | 15 (≈ 40.3 µM) | 30 (≈ 80.7 µM) | 30 (≈ 80.7 µM) | 25 (≈ 67.2 µM) |
| COC(=O)Nc1nc2ccccc2[nH]1 [CARBENDAZIM] | – | 15 (≈ 78.5 µM) | – | 15 (≈ 78.5 µM) | 10 (≈ 52.3 µM) | – | – | – | – |
| CN1C[C@@]2(CCc3ccccc3C2=O)[C@H]2c3ccccc3OC[C@H]21 | 20 (≈ 62.6 µM) | 105 (≈ 329 µM) | 35 (≈ 110 µM) | 85 (≈ 266 µM) | 75 (≈ 235 µM) | 25 (≈ 78.3 µM) | 60 (≈ 188 µM) | 45 (≈ 141 µM) | 55 (≈ 172 µM) |
